Reference: patent US7964359B2, “Compositions and methods for the enhancement of soluble amyloid beta oligomer (ADDL) uptake and clearance” (Acumen Pharmaceuticals, Inc., priority 2006, dated 2011)

Experiments:
[1] = system: hippocampal neurons; experiment: ADDL binding to hippocampal neurons after insulin pre-incubation; format: cell-based; settings: for prevention of ADDL binding to hippocampal neurons: then 100 nM ADDLs
Text: This possibility seems unlikely, however, given the abundance of insulin receptors in cell bodies of ADDL-exposed neurons.

[2] = system: cultured cortical neurons; experiment: ADDL uptake in cultured cortical neurons (western blot of medium, immunoprecipitation of lysates); format: cell-based
Description: Primary cortical cultures were prepared from 1-day old pups and maintained in serum-free neurobasal A medium complemented with 2% B-27, […] L-glutamine and 5 μg/mL bFGF. Synthetic oligomeric Aβ peptide assemblies (100 nM) were applied to cultured cortical neurons and incubated at 37° C. for 30 minutes. […] After separation on SDS-PAGE, the precipitated oligomeric Aβ peptide assemblies were detected on western blots with 6E10 antibody. The bar graph (mean±SE) summarizes data from four independent replicated treatments.
(§1) ADDL Uptake and Clearance by Neurons Occurs Via Insulin Receptor Signaling. […] Extracellular ADDL levels were measured on western blots using a concentrated medium. […] On the other hand, the intracellular ADDLs were detected by immunoprecipitation (FIG. 2B). […] This uptake, however, was prevented by […] (FIG. 2B, lane 5, 6).

[3] = system: hippocampal neurons; experiment: ADDL uptake in hippocampal neurons; format: cell-based
Description: as §1

[4] = system: cells over-expressing insulin receptor; experiment: ADDL uptake and clearance by cells over-expressing insulin receptor; format: cell-based
Text: The amount of oligomeric Aβ peptide assemblies present in cell lysates and culture medium is presented.
Total ADDL levels were higher than other treatment conditions. […] In the presence of insulin, ADDLs were internalized and detected in the center of the intracellular compartment. In the presence of AG1024, the majority of ADDLs were retained in the extracellular compartment.

[5] = molecular target: T1, insulin receptor (Rattus norvegicus, UniProt P15127); experiment: Insulin receptor tyrosine phosphorylation in hippocampal neuronal cultures; format: cell-based; set-up: endogenous in cells; host or cells: rat primary hippocampal and cortical neuronal cultures; settings: for tyrosine phosphorylation of the insulin receptor: substance alone; for tyrosine phosphorylation of the insulin receptor / insulin-stimulated insulin receptor tyrosine phosphorylation: hippocampal neurons; for insulin-stimulated insulin receptor tyrosine phosphorylation: ADDLs with 100 nM insulin
T1 sequence (P15127 27-759 limits assumed): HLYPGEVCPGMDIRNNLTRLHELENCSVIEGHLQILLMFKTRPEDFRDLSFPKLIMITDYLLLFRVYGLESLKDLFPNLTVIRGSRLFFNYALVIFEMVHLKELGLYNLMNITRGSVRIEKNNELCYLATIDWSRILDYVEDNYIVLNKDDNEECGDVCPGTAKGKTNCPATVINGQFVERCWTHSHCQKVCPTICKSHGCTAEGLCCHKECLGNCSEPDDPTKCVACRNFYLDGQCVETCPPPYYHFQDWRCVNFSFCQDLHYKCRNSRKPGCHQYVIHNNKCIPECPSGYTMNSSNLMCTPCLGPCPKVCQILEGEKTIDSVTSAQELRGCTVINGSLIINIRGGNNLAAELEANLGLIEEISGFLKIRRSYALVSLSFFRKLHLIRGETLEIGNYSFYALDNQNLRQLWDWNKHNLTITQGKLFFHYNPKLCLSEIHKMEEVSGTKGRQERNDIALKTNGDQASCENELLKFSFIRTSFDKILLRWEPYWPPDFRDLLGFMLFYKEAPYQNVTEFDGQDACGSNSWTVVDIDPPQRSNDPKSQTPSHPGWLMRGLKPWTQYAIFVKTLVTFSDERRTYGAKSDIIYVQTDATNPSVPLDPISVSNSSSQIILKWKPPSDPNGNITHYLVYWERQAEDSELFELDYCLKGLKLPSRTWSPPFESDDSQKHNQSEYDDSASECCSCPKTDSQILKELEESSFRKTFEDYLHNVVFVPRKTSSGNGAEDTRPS
T1 sequence (P15127 764-1383 limits assumed): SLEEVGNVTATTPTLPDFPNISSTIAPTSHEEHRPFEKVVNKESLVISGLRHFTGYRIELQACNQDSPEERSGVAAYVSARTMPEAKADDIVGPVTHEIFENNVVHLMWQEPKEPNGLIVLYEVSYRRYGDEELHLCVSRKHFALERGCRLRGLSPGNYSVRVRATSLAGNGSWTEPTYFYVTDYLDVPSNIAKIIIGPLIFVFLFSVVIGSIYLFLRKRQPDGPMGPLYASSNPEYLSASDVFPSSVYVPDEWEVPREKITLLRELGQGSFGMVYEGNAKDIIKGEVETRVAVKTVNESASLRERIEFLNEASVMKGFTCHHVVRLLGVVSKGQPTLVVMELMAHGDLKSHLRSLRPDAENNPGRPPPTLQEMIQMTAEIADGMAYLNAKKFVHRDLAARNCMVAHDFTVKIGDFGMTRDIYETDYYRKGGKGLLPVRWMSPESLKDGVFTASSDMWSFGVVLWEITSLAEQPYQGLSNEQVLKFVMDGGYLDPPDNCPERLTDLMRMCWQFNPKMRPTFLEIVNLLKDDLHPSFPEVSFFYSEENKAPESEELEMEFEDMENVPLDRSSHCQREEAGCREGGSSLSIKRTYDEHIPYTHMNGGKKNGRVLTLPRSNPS
Description: The insulin receptor was immunoprecipitated by an antibody against the β subunit of the insulin receptor. The precipitated proteins were then detected on separate western blots by an anti-phosphotyrosine antibody and an anti-insulin receptor β subunit antibody, respectively. The ratio of phosphorylated and regular receptors was calculated after densitometry scan and compared among different treatments.
(§2) The tyrosine phosphorylation extent of insulin receptor was examined by precipitating insulin receptor with anti-insulin receptor antibody followed by blotting with anti-pTyr antibody on western blots.
(§3) Upon termination of the reaction, the extracellular medium was removed and cell lysates were prepared with a lysis buffer. The tyrosine phosphorylation of insulin receptor was assessed by immunoprecipitation of insulin receptor with a specific anti-insulin receptor antibody, followed by blotting the precipitated receptor with an anti-tyrosine antibody.

[6] = molecular target: T1, insulin receptor; experiment: Insulin receptor tyrosine phosphorylation in cortical neuronal cultures; format: cell-based; set-up: endogenous in cells; host or cells: rat primary hippocampal and cortical neuronal cultures; settings: cortical neurons
Description: as §2, §3

[7] = system: hippocampal neurons; experiment: MTT cell viability assay after ADDL/insulin treatment; format: cell-based
[8] = molecular target: T2, insulin receptor (Homo sapiens, UniProt P06213); experiment: Effect of insulin signaling blockers on insulin-stimulated insulin receptor phosphorylation; format: cell-based
Text: These assays are validated via the use of control compounds such as insulin signaling and receptor antagonists and insulin sensitizers.

[9] = molecular target: T2, insulin receptor; experiment: ADDL breakdown by cells over expressing human insulin receptor; format: cell-based; set-up: expressed in transfected cells; settings: inhibition of insulin receptor
[10] = system: Akt; experiment: Akt ser473 phosphorylation in cortical neurons; format: cell-based; settings: 6 hours
Text: (§4) Equalized total amount of protein from soluble cell lysates were separated on SDS-PAGE, and pAkt ser473 detected on western blots with a specific antibody against pAkt ser473. Identical samples transferred to a separate membrane were detected with an anti-total Akt (rAkt) antibody for internal normalization. The normalized pAkt extent from each experimental condition was converted to percent control and analyzed with one-way ANOVA, **P<0.01.
(§5) In the presence ADDLs, however, there was an increase in pAkt ser473. […] To test whether inhibition of phosphatase 2A (PP2A) causes a similar enhancement of pAkt ser473, the cortical neurons were pre-treated with okadaic acid (OA), a potent PP2A/PP1 inhibitor at a concentration (10 nM) preferentially inhibiting PP2A.

[11] = molecular target: T1, insulin receptor; experiment: Serine phosphorylation of insulin receptor in hippocampal neurons; format: cell-based; set-up: endogenous in cells; host or cells: rat primary hippocampal and cortical neuronal cultures; settings: 150 nM ADDLs, 60 minutes
Description: The cell lysates were subjected to immunoprecipitation using an anti-insulin receptor antibody. The precipitated insulin receptors were analyzed by western blot with an anti-phosphoserine antibody to detect the serine phosphorylation extent of insulin receptor (pSer-IR). The pSer-IR extent was normalized with the total amount of precipitated insulin receptor. Each condition was converted to percent control before analyzed one-way ANOVA, **p<0.01.

[12] = system: IRS1; experiment: IRS1 serine307 phosphorylation in hippocampal neuronal cultures; format: cell-based; settings: 150 nM ADDLs, 60 minutes
Text: Equal amount of total proteins from soluble cell lysates from each condition was separated on SDS-PAGE and transferred to nitrocellulose membranes. The phosphorylation extent of IRS1 Ser307 was detected with an anti-IRS1 PSer307 antibody. Identical samples on a separate membrane were blotted with an anti-total amount of IRS1 (rIRS1). The immunoreactivities of pIRS1(Ser307) were normalized with those of rIRS1. Values from each experimental group were converted to percent control and analyzed with one-way ANOVA, ***p<0.0001; **p<0.01.

[13] = system: Akt; experiment: Akt ser473 phosphorylation in hippocampal neurons; format: cell-based; settings: 1 hour post-ADDL/INS treatment
Text: as §4, §5

[14] = system: MAP kinase; experiment: Insulin-induced MAP kinase phosphorylation; format: cell-based; settings: ADDL treatment
Text: Identified herein is a signaling loop in which molecular pathology of AD and type II diabetes can be interconnected.

[15] = molecular target: T2, insulin receptor; experiment: Ligand blotting of ADDLs to precipitated insulin receptor; format: binding; set-up: expressed in transfected cells; settings: 100 nM ADDLs; receptors from cells with and without insulin treatment
Text: The cell lysates were subjected to co-immunoprecipitation, in which a specific anti-ADDL antibody (20C2) was used to precipitated ADDLs and proteins that complexed with ADDLs. This was followed by detection of insulin receptor from precipitated proteins on a western blot. […] To test whether the ADDL-insulin receptor interaction is direct, the human insulin receptors from insulin receptor expressing cells with and without insulin treatment were precipitated with an anti-insulin receptor antibody.

[16] = molecular target: T1, insulin receptor; experiment: Insulin receptor (IRα) immunofluorescence in mature hippocampal neurons after ADDL treatment; format: cell-based; set-up: endogenous in cells; host or cells: cultures of mature hippocampal neurons; settings: 100 nM ADDLs, 30 minutes
Description: ADDLs were added to cultures at 100 nM and incubated for 30 minutes to allow for complete binding. […] Insulin receptors, identified using antibodies against the outward-directed alpha sub-unit, also distributed in a punctate manner.
To investigate whether ADDLs cause IR impairment, changes in neuronal IR levels following ADDL treatment were analyzed. […] To detect neuronal surface IR, an antibody recognizing the alpha subunit of IR (IRα) localized on the extracellular membrane layer. Abundant IRα immunoreactivity was detected in cultured hippocampal neurons, which was particularly concentrated on the membrane of soma and dendrites. After treated with 100 nM ADDLs for 30 minutes, however, there was a drastic change in IRα immunostaining pattern with a substantial reduction of IRα from dendrites but an increase in the cell body. […] The increased cytosolic IRα immunoreactivity implicates internalization of the receptor. Loss of IRα occurred specifically to ADDL attacked dendrites. […] Similar to the above experiment, ADDLs were added to cultures at 100 nM and incubated for 30 minutes to allow for complete binding.
The down-regulation of IR is likely due to internalization the receptor by ADDLs.

[17] = molecular target: T2, insulin receptor; settings: cited from earlier work
[18] = cells pretreated with inhibitor before ADDL and insulin

Molecule: insulin
- ADDL binding and its effects ([1]; insulin 1 micromolar, 30 minutes before ADDLs): blocked
- prevention of ADDL binding to hippocampal neurons ([1]; pre-incubation with 100 nM insulin): ~40%
- prevention of ADDL binding to hippocampal neurons ([1]; pre-incubation with 1 μM insulin): ~70%
- ADDL oligomers in the cell lysate fractions ([2]; 100 nM ADDLs, immunoprecipitation with 6E10): increase of ADDL oligomers
- ADDL uptake into hippocampal neurons [3]: stimulated a striking ADDL uptake into hippocampal neurons in a clear dose-response manner
- aggregated ADDLs in the extracellular medium ([3]; hippocampal neurons): reduced aggregated ADDLs in the extracellular medium in a dose-response manner
- total amount of ADDLs ([4]; 100 nM ADDL with insulin, P<0.01): significantly reduced
- ADDL uptake (ADDL levels in cell lysates up, extracellular medium down) ([4]; 100 nM ADDL, 100 nM insulin): stimulated ADDL uptake
- tyrosine phosphorylation of the insulin receptor [5]: marked increases in insulin receptor tyrosine phosphorylation
- tyrosine phosphorylation of the insulin receptor ([5]; listed as Insulin): stimulated an increase in tyrosine phosphorylation
- insulin receptor tyrosine phosphorylation ([6]; 100 nM insulin): marked increases in insulin receptor tyrosine phosphorylation
- cell viability (MTT) ([7]; ADDLs/insulin for 4 hours): no apparent toxic effects

Molecule: CC(C)(C)c1cc(C=C(C#N)C#N)cc(Br)c1O [AG1024, tyrphostin AG1024]
- ADDLs in the extracellular medium ([2]; 100 nM synthetic ADDLs, 37° C., 30 minutes): striking aggregation of ADDLS
- insulin-induced ADDL uptake into cell lysate ([2]; inhibitor included prior to ADDL treatment): prevented
- ADDL aggregates in the extracellular medium [4, 18]: markedly higher amount of ADDL aggregates in the extracellular medium
- insulin-stimulated ADDL internalization [4, 18]: prevented
- insulin-stimulated insulin receptor phosphorylation [8]: significantly inhibited
- ADDLs in the extracellular medium [9]: striking accumulation of ADDLs in the extracellular medium

Molecule: C=C1[C@@H](O)[C@@H]2O[C@]3(CC[C@H](/C=C/[C@@H](C)[C@@H]4CC(C)=C[C@@]5(O[C@H](C[C@@](C)(O)C(=O)O)CC[C@H]5O)O4)O3)CC[C@H]2O[C@@H]1[C@@H](O)C[C@H](C)[C@H]1O[C@@]2(CCCCO2)CC[C@H]1C [okadaic acid]
- duration of insulin-induced increase in pAkt ser473 [10]: prolonged the insulin-increased pAkt ser473

Molecule: ADDLs: neurotoxic soluble oligomeric assemblies of Aβ 1-42, prepared from synthetic Aβ 1-42 peptide
- serine phosphorylation of insulin receptor (pSer-IR) [11]: increase in serine phosphorylation of insulin receptor
- duration of insulin-induced increase in pAkt ser473 [10]: significantly prolonged
- IRS-1 serine 307 phosphorylation [12]: increase in serine phosphorylation of IRS-1
- insulin-induced pAkt Ser473 [13]: enhancement of the insulin-induced pAkt Ser473
- amount of the insulin receptor ([5]; ADDL treatment, hippocampal neuronal cultures): reduction in the amount of the insulin receptor
- insulin-stimulated insulin receptor tyrosine phosphorylation [5]: significantly inhibited
- insulin-stimulated insulin receptor tyrosine phosphorylation ([5]; listed as ADDL): abolished
- insulin-stimulated insulin receptor tyrosine phosphorylation ([5]; listed as soluble oligomeric Aβ peptide assemblies): significant inhibition
- tyrosine phosphorylation of the insulin receptor [5]: increase in tyrosine phosphorylation of the insulin receptor
- insulin-induced insulin receptor tyrosine phosphorylation ([6]; ADDLs 50-150 nM with 100 nM insulin): significantly inhibited
- neuronal toxicity (MTT cell viability) ([7]; ADDLs alone, varying treatment duration): cause neuronal toxicity in a treatment duration-dependent
- insulin-induced MAP kinase phosphorylation [14]: significantly inhibited
- binding of ADDL to insulin receptor (ligand blot) [15]: strong binding of ADDL to insulin receptor was detected only in the activated but not the control insulin receptor
- insulin receptor immunoreactivity in cell bodies vs ADDL-free cells [16]: ~3 fold
- dendritic IRα fluorescent intensity ([16]; P<0.01): significant loss of IRα immunoreactivity
- reduction of dendritic insulin receptor immunoreactivity vs ADDL-free cells ([16]; image analysis): ~70%

Molecule: CN(C)C(=N)N=C(N)N [Metformin]
- tyrosine kinase activity of the insulin receptor [17]: enhance the tyrosine kinase activity of the insulin receptor

Molecule: CC(=O)OCOC(=O)CN(CC(=O)OCOC(C)=O)c1ccccc1OCCOc1ccccc1N(CC(=O)OCOC(C)=O)CC(=O)OCOC(C)=O [BAPTA-AM, 1,2-bis(o-aminophenoxy)ethane-N,N,N′,N′-tetraacetic acid tetra(acetoxymethyl)ester]
- ADDL inhibition of insulin-stimulated IR tyrosine phosphorylation under chelation of intracellular Ca2+ ([5]; 100-150 nM ADDLs, neuronal depolarization and glutamate stimulation): could be rescued

Molecule: O.O=C([O-])c1ccccc1-c1c2cc(I)c(=O)c(I)c-2oc2c(I)c([O-])c(I)cc12.[Na+].[Na+] [erythrosin B]
- insulin-stimulated insulin receptor phosphorylation [8]: significantly inhibited
